Data published in US10508120B2, “TYK2 inhibitors and uses thereof” (Nimbus Lakshmi, Inc., priority 2017, dated 2019).

Experiments:
[1] = target: human TYK2 (JH2domain-pseudokinase) (Homo sapiens (Human), UniProt P29597); experiment: TYK2 JH2 Domain Binding Assay (KINOMEscan)
Method in brief: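 Kds, run in duplicate, came from Hill fits (slope fixed at −1) of an 11-point 3-fold dilution series starting at 30,000 nM. Bead-retained TYK2 JH2 (aa G556–D888)–NFkB DBD fusion, DNA-tagged and expressed in HEK293 cells, was read by qPCR after 1 h room-temperature binding in 0.9% DMSO.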

Tyk2 kinase domain (DH1) = Tyk2 kinase domain (DH1) (Homo sapiens (Human), UniProt P29597); experiment: Tyk2 Radioactive Kinase Assay; format: biochemical; conditions: compound at 10 μM, ATP 10 μM; for inhibition at 10 µM: read-out: Tyk2 JH1% Inhibition @ 10 μM
Chain of Tyk2 kinase domain (DH1) (P29597 897-1176): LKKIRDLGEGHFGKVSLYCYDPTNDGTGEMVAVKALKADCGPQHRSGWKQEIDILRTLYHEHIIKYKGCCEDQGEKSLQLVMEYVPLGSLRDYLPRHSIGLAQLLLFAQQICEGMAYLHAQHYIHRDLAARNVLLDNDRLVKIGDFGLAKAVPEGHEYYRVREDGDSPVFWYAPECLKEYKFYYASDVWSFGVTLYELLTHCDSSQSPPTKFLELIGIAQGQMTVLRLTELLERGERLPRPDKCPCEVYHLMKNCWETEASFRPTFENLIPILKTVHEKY
Method in brief: (§1)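 Each kinase domain is incubated with test compound at 10 μM. Activity is then measured radiometrically and expressed as percent inhibition relative to uninhibited enzyme.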

JAK2 kinase domain (JH1) = JAK2 kinase domain (JH1) (Homo sapiens (Human), UniProt O60674); experiment: JAK2 Radioactive Kinase Assay; format: biochemical; conditions: compound at 10 μM, ATP 10 μM; for inhibition at 10 µM: read-out: JAK2 JH1% Inhibition @ 10 μM
Chain of JAK2 kinase domain (JH1) (O60674 849-1124): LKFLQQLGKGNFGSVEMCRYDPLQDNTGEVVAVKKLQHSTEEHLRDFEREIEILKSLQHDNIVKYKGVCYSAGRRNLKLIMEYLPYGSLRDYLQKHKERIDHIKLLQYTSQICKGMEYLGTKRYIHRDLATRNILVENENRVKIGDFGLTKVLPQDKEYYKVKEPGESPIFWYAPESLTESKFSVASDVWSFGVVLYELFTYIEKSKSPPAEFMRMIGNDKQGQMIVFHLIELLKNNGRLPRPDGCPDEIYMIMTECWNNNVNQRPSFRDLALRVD
Method in brief: as §1

Chain of human TYK2 (JH2domain-pseudokinase) (P29597 556-888): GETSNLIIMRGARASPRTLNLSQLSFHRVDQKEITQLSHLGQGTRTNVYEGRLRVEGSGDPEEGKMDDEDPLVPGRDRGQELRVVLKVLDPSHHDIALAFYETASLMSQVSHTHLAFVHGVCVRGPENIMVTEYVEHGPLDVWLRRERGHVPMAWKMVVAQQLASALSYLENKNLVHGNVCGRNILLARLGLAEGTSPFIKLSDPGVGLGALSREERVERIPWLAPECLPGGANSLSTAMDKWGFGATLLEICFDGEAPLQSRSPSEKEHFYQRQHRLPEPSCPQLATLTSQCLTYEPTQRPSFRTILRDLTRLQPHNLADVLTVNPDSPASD

Row | SMILES | Kd [1] | inhibition at 10 µM (Tyk2 kinase domain (DH1)) | inhibition at 10 µM (JAK2 kinase domain (JH1)) | Tyk2 JH1% Inhibition @ 10 μM (Tyk2 kinase domain (DH1)) | JAK2 JH1% Inhibition @ 10 μM (JAK2 kinase domain (JH1))
1 | CNc1cc(-c2cn(C(C)C)c3ncccc23)nc2c(C(=O)NC3CC4(COC4)C3)cnn12 [I-629, 5-(1-isopropyl-1H-pyrrolo[2,3-b]pyridin-3-yl)-7-(methylamino)-N-(2-oxaspiro[3.3]heptan-6-yl)pyrazolo[1,5-a]pyrimidine-3-carboxamide] | 0.2 to 1 nM | < 50% | < 50% | – | –
2 | CNc1cc(Nc2ccc3c(n2)CCO3)nc2c(C(=O)NC3CC3)cnn12 [I-631] | 0.2 to 1 nM | < 50% | < 50% | – | –
3 | CNc1cc(Nc2ccc3c(n2)CCO3)nc2c(C(=O)N[C@H]3C[C@H]3F)cnn12 [I-632] | < 0.2 nM | < 50% | < 50% | – | –
4 | CNc1cc(Nc2cccn(-c3cnn(C)c3)c2=O)nc2c(C(=O)NCC(C)CO)cnn12 (stereo not drawn) [I-633] | < 0.2 nM | < 50% | < 50% | – | –
5 | CNc1cc(Nc2cccc([C@H]3CCCOC3)n2)nc2c(C(=O)N[C@@H]3COC[C@@H]3O)cnn12 [I-634] | < 0.2 nM | < 50% | < 50% | – | –
6 | CNc1cc(-c2cn(C(C)C)c3ncccc23)nc2c(C(=O)N[C@@H]3CC[C@@H]3O)cnn12 [I-638] | 0.2 to 1 nM | – | – | A (percent inhibition at 10 μM lower than 50) | A (percent inhibition at 10 μM lower than 50)
7 | CNc1cc(Nc2cccc([C@H]3CCCOC3)n2)nc2c(C(=O)N[C@@H]3CC[C@@H]3O)cnn12 [I-641] | 0.2 to 1 nM | – | – | A (percent inhibition at 10 μM lower than 50) | A (percent inhibition at 10 μM lower than 50)
8 | CNc1cc(Nc2cccc([C@H]3CCCOC3)n2)nc2c(C(=O)N[C@H]3CC[C@H]3O)cnn12 [I-642] | < 0.2 nM | < 50% | < 50% | – | –
9 | CNc1cc(Nc2cccc([C@@H]3CCCOC3)n2)nc2c(C(=O)N[C@@H]3CC[C@@H]3O)cnn12 [I-643] | 0.2 to 1 nM | – | – | A (percent inhibition at 10 μM lower than 50) | A (percent inhibition at 10 μM lower than 50)
10 | CNc1cc(Nc2cccc([C@@H]3CCCOC3)n2)nc2c(C(=O)N[C@H]3CC[C@H]3O)cnn12 [I-644] | < 0.2 nM | < 50% | < 50% | – | –
11 | CNc1cc(Nc2cccc([C@@H]3CCCCO3)n2)nc2c(C(=O)N[C@H]3CC[C@H]3O)cnn12 [I-645] | 1 to 10 nM | < 50% | < 50% | – | –
12 | CNc1cc(Nc2cccc([C@H]3CCCCO3)n2)nc2c(C(=O)N[C@H]3CC[C@H]3O)cnn12 [I-647] | < 0.2 nM | < 50% | < 50% | – | –
13 | CNc1cc(Nc2cccc([C@H]3CCCCO3)n2)nc2c(C(=O)N[C@@H]3CC[C@@H]3O)cnn12 [I-648] | 0.2 to 1 nM | – | – | A (percent inhibition at 10 μM lower than 50) | A (percent inhibition at 10 μM lower than 50)
14 | CNc1cc(Nc2cccn(C3CCOCC3)c2=O)nc2c(C(=O)NCC(C)CO)cnn12 (stereo not drawn) [I-649] | < 0.2 nM | < 50% | < 50% | – | –
15 | CNc1cc(Nc2cccn([C@@H]3CCCOC3)c2=O)nc2c(C(=O)N[C@H]3[C@@H]4COC[C@@H]43)cnn12 [I-650] | 1 to 10 nM | < 50% | < 50% | – | –
16 | CNc1cc(Nc2cccn([C@H]3CCCOC3)c2=O)nc2c(C(=O)N[C@H]3[C@@H]4COC[C@@H]43)cnn12 [I-651] | > 10 nM | < 50% | < 50% | – | –
17 | CNc1cc(Nc2cccn(C3CCN(CCC#N)CC3)c2=O)nc2c(C(=O)NC3CC3)cnn12 [I-652, 5-((1-(1-(2-cyanoethyl)piperidin-4-yl)-2-oo-1,2-dihydropyridin-3-yl)amino)-N-cyclopropyl-7-(methylamino)pyrazolo[1,5-a]pyrimidine-3-carboxamide] | < 0.2 nM | < 50% | < 50% | – | –
18 | CNc1cc(Nc2cccn(-c3nc(C)co3)c2=O)nc2c(C(=O)N[C@@H]3CC[C@@H]3O)cnn12 [I-654] | < 0.2 nM | < 50% | < 50% | – | –
19 | CNc1cc(Nc2cccc(N3CCC4(CCCO4)CC3)n2)nc2c(C(=O)NC3CC3)cnn12 [I-655] | 0.2 to 1 nM | < 50% | < 50% | – | –
20 | CNc1cc(Nc2cccc(N3CCC4(CCCO4)CC3)n2)nc2c(C(=O)N[C@H]3C[C@H]3F)cnn12 [I-656] | < 0.2 nM | < 50% | < 50% | – | –
21 | CNc1cc(Nc2cccc(N3CCC4(CCCO4)CC3)n2)nc2c(C(=O)N[C@@H]3CC[C@@H]3O)cnn12 [I-657] | < 0.2 nM | < 50% | < 50% | – | –
22 | CNc1cc(Nc2cccn3cnnc23)nc2c(C(=O)NC3CC3)cnn12 [I-659] | < 0.2 nM | < 50% | < 50% | – | –
23 | CNc1cc(Nc2cccn3cnnc23)nc2c(C(=O)N[C@H]3C[C@H]3F)cnn12 [I-660] | < 0.2 nM | < 50% | < 50% | – | –
24 | CNc1cc(Nc2cccn3cnnc23)nc2c(C(=O)N[C@@H]3CC[C@@H]3O)cnn12 [I-662] | < 0.2 nM | < 50% | < 50% | – | –
25 | CNc1cc(Nc2cccn(-c3nc(C)co3)c2=O)nc2c(C(=O)NCC(C)CO)cnn12 (stereo not drawn) [I-663] | < 0.2 nM | < 50% | < 50% | – | –
26 | CNc1cc(Nc2cccn(-c3cnn(C)c3)c2=O)nc2c(C(=O)NC[C@H](C)CO)cnn12 [I-668] | < 0.2 nM | < 50% | < 50% | – | –
27 | CNc1cc(Nc2cccn(-c3cnn(C)c3)c2=O)nc2c(C(=O)NC[C@@H](C)CO)cnn12 [I-669] | < 0.2 nM | < 50% | < 50% | – | –

More lines, main results first:

Row | Kd [1] | inhibition at 10 µM (Tyk2 kinase domain (DH1)) | inhibition at 10 µM (JAK2 kinase domain (JH1)) | SMILES | Tyk2 JH1% Inhibition @ 10 μM (Tyk2 kinase domain (DH1)) | JAK2 JH1% Inhibition @ 10 μM (JAK2 kinase domain (JH1))
28 | < 0.2 nM | < 50% | < 50% | CNc1cc(Nc2cccn([C@@H]3CCCC[C@@H]3O)c2=O)nc2c(C(=O)NC3CC3)cnn12 [I-671] | – | –
29 | < 0.2 nM | < 50% | < 50% | CNc1cc(Nc2cccn(-c3ncc(OC)cc3F)c2=O)nc2c(C(=O)NC3CC3)cnn12 [I-672] | – | –
30 | 0.2 to 1 nM | < 50% | < 50% | CNc1cc(Nc2cccn(C3CCOCC3)c2=O)nc2c(C(=O)N[C@@H]3COC[C@@H]3O)cnn12 [I-674] | – | –
31 | 0.2 to 1 nM | < 50% | < 50% | CNc1cc(-c2cn(CCN3CCOCC3)c3ncccc23)nc2c(C(=O)N[C@@H]3CC[C@@H]3O)cnn12 [I-678] | – | –
32 | < 0.2 nM | < 50% | < 50% | CNc1cc(Nc2cccc(N3CCCC3=O)n2)nc2c(C(=O)N[C@@H]3CC[C@@H]3O)cnn12 [I-679] | – | –
33 | 0.2 to 1 nM | < 50% | < 50% | CNc1cc(Nc2cccn(-c3ccccn3)c2=O)nc2c(C(=O)NCC(C)CO)cnn12 (stereo not drawn) [I-682] | – | –
34 | < 0.2 nM | < 50% | < 50% | CNc1cc(Nc2cccn(-c3ccccn3)c2=O)nc2c(C(=O)NCC(C)(C)CO)cnn12 [I-683, N-(3-hydroxy-2,2-dimethylpropyl)-7-(methylamino)-5-((2-oxo-2H-[1,2′-bipyridin]-3-yl)amino)pyrazolo[1,5-a]pyrimidine-3-carboxamide] | – | –
35 | 0.2 to 1 nM | < 50% | < 50% | CNc1cc(Nc2cccn(-c3ccccn3)c2=O)nc2c(C(=O)NCC3(CO)CC3)cnn12 [I-684] | – | –
36 | 0.2 to 1 nM | < 50% | < 50% | CNc1cc(Nc2cccn([C@@H]3CCN(C)C[C@H]3F)c2=O)nc2c(C(=O)NC3CC3)cnn12 [I-686] | – | –
37 | 0.2 to 1 nM | – | – | CNc1cc(Nc2cccn([C@H]3CCN(C)C[C@H]3F)c2=O)nc2c(C(=O)NC3CC3)cnn12 [I-687] | A (percent inhibition at 10 μM lower than 50) | A (percent inhibition at 10 μM lower than 50)
38 | < 0.2 nM | < 50% | < 50% | CNc1cc(Nc2cccn([C@@H]3CCN(C)C[C@@H]3F)c2=O)nc2c(C(=O)NC3CC3)cnn12 [I-688] | – | –
39 | 0.2 to 1 nM | < 50% | < 50% | CNc1cc(Nc2cccn(C3CCN(C)CC3)c2=O)nc2c(C(=O)N[C@H]3CC[C@H]3O)cnn12 [I-689] | – | –
40 | 1 to 10 nM | – | – | CNc1cc(Nc2cccn(C3CCN(C)CC3)c2=O)nc2c(C(=O)N[C@@H]3CC[C@@H]3O)cnn12 [I-690] | A (percent inhibition at 10 μM lower than 50) | A (percent inhibition at 10 μM lower than 50)
41 | 1 to 10 nM | – | – | CNc1cc(Nc2cccc([C@H]3CCCOC3)n2)nc2c(C(=O)N[C@@H]3COC[C@@H]3O)cnn12 [I-691] | A (percent inhibition at 10 μM lower than 50) | A (percent inhibition at 10 μM lower than 50)
42 | < 0.2 nM | < 50% | < 50% | CNc1cc(Nc2cccc([C@H]3CCCOC3)n2)nc2c(C(=O)N[C@H]3COC[C@H]3O)cnn12 [I-692] | – | –
43 | < 0.2 nM | < 50% | < 50% | CNc1cc(Nc2cccc([C@H]3CCCOC3)n2)nc2c(C(=O)NC3COCC3O)cnn12 (stereo partly drawn) [I-695, N-(4-hydroytetrahydrofuran-3-yl)-7-(methylamino)-5-((6-((R)-tetrahydro-2H-pyran-3-yl)pyridin-2-yl)amino)pyrazolo[1,5-a]pyrimidine-3-carboxamide] | – | –
